1 molecule from US9090640B2, “Targeted delivery and prodrug designs for platinum-acridine anti-cancer compounds and methods thereof” (priority 2011, dated 2015) can be followed below.

In one assay the test system is NCI-H460. Description: Cytotoxicity (cell proliferation) assay in NCI-H460. The class given is cell-based, human. Here is the method:
Cytotoxicity Assay. Cytotoxicity studies were carried out according to a standard protocol (Guddneppanavar et al. 2006) using the Celltiter 96 Aqueous Non-Radioactive Cell Proliferation Assay kit (Promega, Madison, Wis.). Stock solutions of 11, 14a, and 14b were prepared in phosphate-buffered saline (PBS) and serially diluted with media prior to incubation with cancer cells. IC50 values were calculated from non-linear curve fits using a sigmoidal dose-response equation in GraphPad Prism (GraphPad Software, La Jolla, Calif.). […]
Cell Proliferation Assay. Cell viability was assessed using the CellTiter 96 Aqueous Non-Radioactive Cell Proliferation Assay (Promega, Madison. Wis., USA) as described previously. […] The absorbance of tetrazolium dye was measured at 490) nm using a plate reader. The fraction of viable cells was calculated as a percentage of untreated control and is reported as the mean±standard deviation for 3 incubations of each compound. IC50 values were calculated from non-linear curve fits using a sigmoidal dose-response equation in GraphPad Prism (GraphPad Software, La Jolla, Calif.) and are averages of two individual experiments performed in triplicate. […]

Another assay concerns OVCAR-3 (ovarian). In words: Colorimetric cell proliferation assay in OVCAR-3. The class given is cell-based. The note with it: 72-h incubations performed in triplicate.
The subject of assay [1] is MDA-MB-231 (triple-negative breast). Description: Colorimetric cell proliferation assay in MDA-MB-231. The class given is cell-based. To be noted: 72-h incubations performed in triplicate.
The next assay concerns MCF-7 (ER + breast). Description: Colorimetric cell proliferation assay in MCF-7. It counts as cell-based. To be noted: 72-h incubations performed in triplicate.
Another assay deals with PANC-1 (pancreatic). In words: Colorimetric cell proliferation assay in PANC-1. It counts as cell-based. To be noted: 72-h incubations performed in triplicate.

Each structure is given as a SMILES string.

As for `N.N.[Cl][Pt][Cl]` [cispiatin, cis-diamminedichloroplatinum], the IC50 in the assay with NCI-H460 (72-h incubations performed in triplicate (Table II), read-out: IC50, NCI-H460 (NSCLC)) stood at 1.2 ± 0.2 µM; in the assay with OVCAR-3 (ovarian), 3.3 ± 0.4 µM; in assay [1], 60 ± 7 µM; in the assay on MCF-7 (ER + breast), 12 ± 2 µM; with PANC-1 (pancreatic), 6.6 ± 0.7 µM. Moreover, in the assay on NCI-H460 (compared with 14a and 14b), the “Fold less potent than the compounds of the invention in H460 cells” value is given as “at least 20 fold”.
